Measurements taken from patent US5618837A, “PDGF antagonists III” (ZymoGenetics, Inc., priority 1995, dated 1997).

Columns and labels:
[1] = test system: bFGF-induced SRE-luciferase expression in SWISS3T3 cells; assay: SRE-luciferase reporter antagonist assay, bFGF induction; format: cell-based; conditions: 2.0 ng/ml bFGF; SWISS3T3/KZ67-G1-6 cells; 5 hours at 37° C.
Method: (§1) Initial characterization of Brefeldin A as a non-peptide PDGF antagonist was made possible through an SRE-Luciferase high through-put assay system which identifies substances that are able to block expression of a serum response element (SRE)-luciferase reporter gene expressed in SWISS3T3 cells. […] The degree of antagonist specificity can be determined by comparing the resultant signal for the three growth factors (PDGF, bFGF, and EGF). […]
(§2) Folowing induction, luciferase activity was measured using a Promega luciferase assay kit (E1500; Promega Corp., Madison, Wis.) according to the assay kit protocol. […] The amount of luminescence (relative light units, RLU) was determined following a 1 second mix and a 1-3 integration of signal. Basal (uninduced) luciferase signal was substracted from all measurements,and the luciferase signal induced by test samples was expressed as a percentage of the signal from the controls. […]

[2] = test system: PDGF-BB mitogenic activity on baboon smooth muscle cells; assay: Inhibition of PDGF-BB mitogenic activity on baboon smooth muscle cells ([3H] thymidine incorporation); format: cell-based
Method: Brefeldin A was analyzed for the ability to inhibit the mitogenic activity of PDGF on baboon smooth muscle cells. All mitogenesis assays performed on baboon vascular smooth muscle cells (BVSMCs) were done on primary cultures of cells between passages 13 and 20 in culture. The initial cultures were established from outgrowth of aortic tissue explants. Baboon smooth muscle cells were plated at approximately 20,000 cells per well, in DMEM supplemented with 10% fetal calf serum, into 24-well culture dishes. One day prior to use the culture media was removed, and 1 ml of Mito Media (Table 3) was added to each well to allow the cells to become quiescent. At the time of the experiment the cells were stimulated with PDGF-BB. […] 20X stock solutions were made for each of the PDGF concentrations by dilution in 10 mM acetic acid containing 0.25% albumin, and 50 μl of PDGF or dilution vehicle alone was added to the culture wells. To analyze the activity of Brefeldin A to neutralize PDGF-BB mitogenic activity, 1 ng/ml of PDGF was added to wells along with dilutions of Brefeldin A. The cells were incubated with the test samples for approximately 20 hours at 37° C. Fifty μl of a 20x stock solution was then added to each well to give a final concentration of 1 μCi/ml. The cells were incubated for 4 hours at 37° C., washed with PBS, then harvested with trypsin and counted for [^3 H] thymidine incorporation in a Wallac (Turku, Finland) Betaplate™ liquid scintillation counter. […] As part of this same experiment, the inhibitory potency of Brefeldin A was analyzed in the presence of heparin to determine if heparin is able to act in a combinatorial manner with Brefeldin A for inhibiting PDGF-BB mitogenic activity. Baboon smooth muscle cells were incubated in Brefeldin A with 1 ng/ml PDGF-BB in the presence of 0.5 U/ml of unfractionated heparin. The cells were pulse-labeled with [^3 H] thymidine as described above, and the level of [^3 H] thymidine incorporation was determined.

[3] = test system: EGF-induced SRE-luciferase expression in SWISS3T3 cells; assay: SRE-luciferase reporter antagonist assay, EGF induction; format: cell-based; conditions: 4.5 ng/ml EGF; SWISS3T3/KZ67-G1-6 cells; 5 hours at 37° C.
Method: as §1, §2

[4] = test system: 125I-PDGF-BB binding to rat SMCs; assay: Inhibition of 125I-PDGF-BB binding to rat smooth muscle cells; conditions: 4° C.; for % Control Binding: negative control = 100, 90 min; for 125I PDGF-BB Bound (CPM): specific cpm, nonspecific subtracted, negative control 10006
Method: Brefeldin A was analyzed for the ability to inhibit ^125 I-PDGF-BB binding to monolayers of rat SMCs. SMCs were plated at approximately 20,000 cells/well in 24-well culture dishes. The cells were used for assay 2-7 days after plating. The test compound was diluted in binding media (500 ml Hams F-12 (Gibco BRL), 12 ml 1M Hepes pH 7.4, 5 ml 100X PSN, 1 gm rabbit serum albumin (Sigma Chemical Co., St. Louis, Mo.) to the concentrations shown in Table 2, then added to the SMCs (1 ml/well) in triplicate. To the wells was then added 50 μl of a ^125 I-PDGF-BB binding stock solution. Binding media alone was used as the negative control, and the addition of 200 ng/ml of PDGF-BB was used to determine nonspecific binding for ^125 I-PDGF-BB. The cells were incubated for approximately 11/2 hours at 4° C., then washed with binding media to remove unbound ligand. The cells were then incubated with extraction buffer (20 mM Tris-HCl pH 8.0, 100 mM NaCl, 1 mM EDTA, 0.5% sodium deoxycholate, 10 mM NaI, 1% bovine serum albumin), and the extracts were harvested and counted in a gamma counter. The data are presented as specific cpm bound for ^125 I-PDGF-BB. Nonspecific binding, determined by the addition of 200 ng/ml of unlabeled PDGF-BB, was 853 cpm, and has been subtracted from the data presented.

CC1CCCC=CC2CC(O)CC2C(O)C=CC(=O)O1 (centres unmarked) [Brefeldin A, 1,6,7,8,9,11a,12,13,14,14a-Decahydro-1,13-dihydroxy-6-methyl-4H-cyclopent[f]oxacyclotridecin-4-one]
bFGF EC50 [1]: No activity | PDGF-BB mitogenic activity inhibition (in words) ([2]; 1 ng/ml PDGF-BB): inhibited by Brefeldin A in a dose dependent fashion | 3H Thymidine (CPM Incorporated), (+) 0.5 U/ml Heparin ([2]; 12.5 nM, 1 ng/ml PDGF-BB): 854 CPM | 3H Thymidine (CPM Incorporated), (-) Heparin ([2]; 12.5 nM, 1 ng/ml PDGF-BB): 1293 CPM | 3H Thymidine (CPM Incorporated), (+) 0.5 U/ml Heparin ([2]; 25 nM, 1 ng/ml PDGF-BB): 684 CPM | 3H Thymidine (CPM Incorporated), (-) Heparin ([2]; 25 nM, 1 ng/ml PDGF-BB): 798 CPM | 3H Thymidine (CPM Incorporated), (+) 0.5 U/ml Heparin ([2]; 50 nM, 1 ng/ml PDGF-BB): 44 CPM | 3H Thymidine (CPM Incorporated), (-) Heparin ([2]; 50 nM, 1 ng/ml PDGF-BB): 36 CPM | 3H Thymidine (CPM Incorporated), (+) 0.5 U/ml Heparin ([2]; 100 nM, 1 ng/ml PDGF-BB): 31 CPM | 3H Thymidine (CPM Incorporated), (-) Heparin ([2]; 100 nM, 1 ng/ml PDGF-BB): 39 CPM | IC50 ([2]; Papio anubis, 1 ng/ml PDGF-BB, baboon smooth muscle cells, read-out: ED50 for the inhibition of PDGF-BB mitogenic activity): ~25 nM | doses inhibiting PDGF-BB mitogenic activity versus doses required to inhibit PDGF binding to rat SMCs ([2]; baboon SMC mitogenesis vs rat SMC binding, fold lower): 1000 fold | inhibition of [3H] thymidine on addition of heparin (in words) ([2]; with 0.5 U/ml unfractionated heparin, 1 ng/ml PDGF-BB, versus Brefeldin A alone): further inhibition of [^3 H] thymidine above that achieved by Brefeldin A alone | EGF EC50 [3]: No activity | % Control Binding ([4]; 50 μM): 92% | 125I PDGF-BB Bound (CPM) ([4]; 50 μM): 9199 CPM | % Control Binding ([4]; 100 μM): 89% | 125I PDGF-BB Bound (CPM) ([4]; 100 μM): 8879 CPM

B1: PDGF-BB: platelet derived growth factor (protein, UniProt P01127 82-190, looked up)
Platelet-derived growth …: SLGSLTIAEPAMIAECKTRTEVFEISRRLIDRTNANFLVWPPCVEVQRCSGCCNNRNVQCRPTQVQLRPVQVRKIEIVRKKPIFKKATVTLEDHLACKCETVAAARPVT
3H Thymidine (CPM Incorporated), (-) Heparin ([2]; PDGF-BB standard curve, 0.062 ng/ml): 120 CPM | 3H Thymidine (CPM Incorporated), (-) Heparin ([2]; PDGF-BB standard curve, 0.125 ng/ml): 226 CPM | 3H Thymidine (CPM Incorporated), (-) Heparin ([2]; PDGF-BB standard curve, 0.25 ng/ml): 392 CPM | 3H Thymidine (CPM Incorporated), (-) Heparin ([2]; PDGF-BB standard curve, 0.5 ng/ml, 0 ng/ml gives 74): 959 CPM | 3H Thymidine (CPM Incorporated), (-) Heparin ([2]; PDGF-BB standard curve, 1 ng/ml): 1701 CPM
